Read-outs that look alike come from different tables or passages of the source. Each block holds one molecule with its values, some of them ahead of it.
Columns and labels:
[1] = system: MA-46 (MA) (DNA, aptamer) CTTACGACTCAGGCATTTTGCCGGGTAACGAAGTTACTGTCGTAAG; assay: ITC; conditions: 20 mM Na+, 5 mM Mg2+
[2] = system: Dopamine Aptamer (DNA, aptamer) CGACGCCAGTTTGAAGGTTCGTTCGCAGGTGTGGAGTGACGTCG; conditions: 140 mM Na+, 4 mM K+, 2 mM Mg2+; 10 mM phosphate pH 7.4, 25 °C; 200 μM ligand
[3] = system: SCA2.1 (DNA, aptamer) CTTACGACCTTAAGTGGGGTTCGGGTGGAGTTTATGGGGTCGTAAG; assay: ITC; conditions: 20 mM Na+, 0.5 mM Mg2+; 10 mM Tris-HCl pH 7.4, 23 °C; one-site model
[4] = system: SCA2.1 (DNA, aptamer) CTTACGACCTTAAGTGGGGTTCGGGTGGAGTTTATGGGGTCGTAAG; conditions: 20 mM Na+, 0.5 mM Mg2+; 10 mM Tris-HCl pH 7.4, 25 °C; 50 μM ligand
[5] = system: MMC1 (DNA, aptamer) CTTACGACCAGGGTTGGTTTCATCGGTGGTGTAATATGGTCGTAAG; assay: ITC; conditions: 20 mM Na+, 0.5 mM Mg2+
[6] = system: Dopamine Aptamer (DNA, aptamer) CGACGCCAGTTTGAAGGTTCGTTCGCAGGTGTGGAGTGACGTCG; assay: T5 Exo/Exo I digestion, SYBR Gold fluorescence; conditions: 140 mM Na+, 4 mM K+, 2 mM Mg2+; 10 mM phosphate pH 7.4, 25 °C; 200 μM ligand
[7] = system: ATP-33 (DNA, aptamer) CGCACCTGGGGGAGTATTGCGGAGGAAGGTGCG; assay: T5 Exo digestion, PAGE; conditions: 10 mM Mg2+; 10 mM Tris-HCl pH 7.4, 25 °C; 250 μM ligand
[8] = system: ATP-28 (DNA, aptamer) CTGGGGGAGTATTGCGGAGGAAGGTGCG; assay: ITC; conditions: 10 mM Mg2+; 10 mM Tris-HCl pH 7.4, 23 °C; sequential model, site 1 of 2
[9] = system: MA-Mutant (DNA, aptamer) CTTACGACGCAGGCATTTTGCCGGGTAACGAAGTTACTGTCGTAAG; assay: ITC; conditions: 20 mM Na+, 5 mM Mg2+
[10] = system: MA-41 (DNA, aptamer) GACTCAGGCATTTTGCCGGGTAACGAAGTTACTGTCGTAAG; assay: ITC; conditions: 20 mM Na+, 5 mM Mg2+; 10 mM Tris-HCl pH 7.4, 23 °C; one-site model
[11] = system: MMC1-Mutant (DNA, aptamer) CTTACGACCAGGGTTGGTTTCACCGGTGGTGTAATATGGTCGTAAG; assay: ITC; conditions: 20 mM Na+, 0.5 mM Mg2+; 10 mM Tris-HCl pH 7.4, 23 °C; 2000 μM ligand in syringe
[12] = system: MMC1-42 (DNA, aptamer) CGACCAGGGTTGGTTTCATCGGTGGTGTAATATGGTCGTAAG; assay: ITC; conditions: 20 mM Na+, 0.5 mM Mg2+; 10 mM Tris-HCl pH 7.4, 23 °C; one-site fit, half racemate concentration stated for MMC1 titrations
[13] = system: MMC2 (DNA, aptamer) CTTACGACCAGGGTTGGTCTCATCGGTGGTGTAATATGGTCGTAAG; assay: continuous-injection ITC and exonuclease assay; conditions: 20 mM Na+, 0.5 mM Mg2+
[14] = system: MMC3 (DNA, aptamer) CTTACGGCCAGGGTTGGTCTCATCGGTGGTGTAATATGGTCGTAAG; assay: continuous-injection ITC and exonuclease assay; conditions: 20 mM Na+, 0.5 mM Mg2+
[15] = system: MMC4 (DNA, aptamer) CTTACGAAGCAGGTGGGTAGGATAGTGTGTGTGCTGTCGTCGTAAG; assay: continuous-injection ITC and exonuclease assay; conditions: 20 mM Na+, 0.5 mM Mg2+
[16] = system: MMC5 (DNA, aptamer) CTTACCGACTATATGGGCAGTATCGTCTAGTGCCTAAGGGTCGTAAG; assay: continuous-injection ITC and exonuclease assay; conditions: 20 mM Na+, 0.5 mM Mg2+; 10 mM Tris-HCl pH 7.4, 23 °C; 1000 μM ligand in syringe; very weak or no binding
[17] = 10 mM Tris-HCl pH 7.4, 23 °C, 1000 μM ligand in syringe
[18] = 10 mM Tris-HCl pH 7.4, 23 °C, one-site model

Compound: CN(C)CCCN1c2ccccc2Sc2ccc(Cl)cc21
Kd [1, 18]: 0.6 ± 0.1 µM

Compound: CNC(C)Cc1ccc2c(c1)OCO2 (stereo not drawn)
binding [2]: no
Kd [1, 18]: 103 ± 4 µM
Kd [3]: 24.5 ± 0.9 µM

Compound: CN[C@@H](C)Cc1ccccc1
binding [4]: no
Kd [1]: > 1000 µM

Compound: CN[C@@H](C)[C@H](O)c1ccccc1
Kd [3]: 64 ± 3 µM

Compound: NCCc1ccc(O)c(O)c1
Kd [5, 17]: > 1000 µM
binding [6]: yes

Compound: Nc1ccn([C@@H]2O[C@H](COP(=O)(O)OP(=O)(O)OP(=O)(O)O)[C@@H](O)[C@H]2O)c(=O)n1
binding [7]: no

Compound: Nc1nc2c(ncn2[C@@H]2O[C@H](COP(=O)(O)OP(=O)(O)OP(=O)(O)O)[C@@H](O)[C@H]2O)c(=O)[nH]1
binding [7]: no

Compound: CCNC(C)C(=O)c1ccc2c(c1)OCO2 (racemic)
Kd [1, 18]: 61 ± 2 µM
Kd [5]: 254 ± 22 µM

Compound: CNC(C)C(=O)c1ccc(F)cc1 (racemic)
Kd [5]: > 1000 µM

Compound: CNC(C)C(=O)c1ccc(OC)cc1 (racemic)
Kd ([5]; 10 mM Tris-HCl pH 7.4, 23 °C, 10-fold lower affinity than mephedrone, half racemate concentration): 146 ± 34 µM

Compound: CNC(C)C(=O)c1ccc2c(c1)OCO2 (racemic)
Kd [5]: 275 ± 17 µM

Compound: CNC(C)C(=O)c1cccc(C)c1 (racemic)
Kd [5]: > 1000 µM

Compound: CNC(C)C(=O)c1ccccc1 (racemic)
Kd [5]: 654 ± 61 µM

Further lines, results first:

Kd [1, 17]: > 1000 µM
Compound: CCN(CC)CC(=O)Nc1c(C)cccc1C

binding [4]: no
Compound: COC(=O)[C@H]1[C@@H](OC(=O)c2ccccc2)C[C@@H]2CC[C@H]1N2C

Kd [1, 18]: 55 ± 2 µM
Compound: NCCc1c[nH]c2ccc(O)cc12

binding [6]: no
Compound: N[C@@H](Cc1ccc(O)cc1)C(=O)O

Kd1 [8]: 4.1 ± 0.2 µM
binding [7]: yes
Compound: Nc1ncnc2c1ncn2[C@@H]1O[C@H](COP(=O)(O)OP(=O)(O)OP(=O)(O)O)[C@@H](O)[C@H]1O

binding [7]: no
Compound: O=c1ccn([C@@H]2O[C@H](COP(=O)(O)OP(=O)(O)OP(=O)(O)O)[C@@H](O)[C@H]2O)c(=O)[nH]1

binding [4]: yes
Kd [1, 18]: 18.8 ± 1.4 µM
binding [9]: no
Kd [10]: 24.8 ± 0.7 µM
Compound: CCCC(C(=O)c1ccc2c(c1)OCO2)N1CCCC1 (racemic)

Kd ([5]; 10 mM Tris-HCl pH 7.4, 23 °C, one-site fit with half the racemate concentration): 15 ± 1.3 µM
binding [11]: no
Kd [12]: 6.6 ± 0.7 µM
binding [13]: yes
binding [14]: yes
binding [15]: yes
binding [16]: no
Compound: CNC(C)C(=O)c1ccc(C)cc1 (racemic)
